# PMC6069857, “Effects of novel HDAC inhibitors on urothelial carcinoma cells” (Clinical Epigenetics, 2018)
# Tests used:
# 639-V = experiment: MTT viability assay (CC50); type: cell-based, human; settings: 72 h of incubation
# Experimental: (§1) Further experiments were performed in VM-CUB1 and UM-UC-3 cells overexpressing HDAC4 (see below). Standard UCCs were obtained from the DSMZ (Braunschweig, Germany) and Dr. H.B. Grossmann HB (Houston, USA). For comparison, we investigated the spontaneously immortalized normal human bladder cell line HBLAK (provided by CELLnTEC, Bern, Switzerland) and the immortalized human embryonic kidney cell line HEK-293 (provided by Dr. V. Kolb-Bachofen, Duesseldorf, Germany). Cells were cultured and treated in DMEM GlutaMAX-I (Gibco, Darmstadt, Germany; UCCs and HEK-293) supplemented with 10% fetal calf serum (Biochrom, Berlin, Germany), except for HBLAK cultured in CnT-Prime Epithelial Culture Medium (CELLnTEC, Bern, Switzerland; HBLAK), at 37 °C and 5% CO2. STR (short tandem repeat) profiling via DNA fingerprint analysis was performed for all cell lines. Primary cultures of normal urothelial cells (UP) were established from healthy ureters removed during tumor nephrectomy and cultured as described. These cultures were used with informed consent of the patients and approval by the Ethics Committee of the Medical Faculty of the Heinrich-Heine-University, study number 1788. All inhibitors were dissolved in DMSO and stored as 10 mM stocks. […] The pan-HDACi inhibitor SAHA previously studied in detail was used for comparison. Solvent control cells were treated with equal amounts of DMSO.
# (§2) For the determination of cellular mean cytotoxic concentration (CC50), UCCs, non-malignant control cells, and HDAC4-overexpressing clones were seeded in a 96-well format and treated once with a range of defined concentrations of the HDAC inhibitors. After 72 h, viability was quantified by NAD(P)H-dependent 3-(4,5-dimethylthiazol-2-yl)-2,5-diphenyltetrazolium bromide dye reduction assay (MTT, Sigma Aldrich, St. Louis, MO). CC50 values were estimated from three independent experiments by non-linear regression analysis (four-parameter logistic equation) using Prism 4.0 (Graph Pad) or Origin 8.0 (Origin Lab, Northhampton, GB). For time-dependent proliferation experiments, viability of untreated or inhibitor-treated cells was measured after 24, 48, and 72 h.
# HBLAK = experiment: MTT viability assay (CC50); type: cell-based, human; settings: 72 h of incubation
# Experimental: as §1, §2
# HEK-293 = experiment: MTT viability assay (CC50); type: cell-based, human; settings: HEK-293, MTT, 72 h of incubation
# Experimental: as §1, §2
# UM-UC-3 = experiment: MTT viability assay (CC50); type: cell-based, human; settings: UM-UC-3, MTT, 72 h of incubation
# Experimental: as §1, §2
# VM-CUB1 = experiment: MTT viability assay (CC50); type: cell-based, human; settings: VM-CUB1, MTT, 72 h of incubation
# Experimental: as §1, §2
# [1] = tested on: UC cell lines (VM-CUB1, UM-UC-3, 639-V); experiment: MTT viability assay, UC cell lines taken together; type: cell-based, human; settings: across VM-CUB1, UM-UC-3, 639-V; MTT, 72 h
# Experimental: Further experiments were performed in VM-CUB1 and UM-UC-3 cells overexpressing HDAC4 (see below). Standard UCCs were obtained from the DSMZ (Braunschweig, Germany) and Dr. H.B. Grossmann HB (Houston, USA). For comparison, we investigated the spontaneously immortalized normal human bladder cell line HBLAK (provided by CELLnTEC, Bern, Switzerland) and the immortalized human embryonic kidney cell line HEK-293 (provided by Dr. V. Kolb-Bachofen, Duesseldorf, Germany). Cells were cultured and treated in DMEM GlutaMAX-I (Gibco, Darmstadt, Germany; UCCs and HEK-293) supplemented with 10% fetal calf serum (Biochrom, Berlin, Germany), except for HBLAK cultured in CnT-Prime Epithelial Culture Medium (CELLnTEC, Bern, Switzerland; HBLAK), at 37 °C and 5% CO2. […]
# as §2, with “CC50 values were estimated from three independent experiments by non-linear regression analysis (four-parameter logistic equation) using Prism 4.0 (Graph Pad) or Origin 8.0 (Origin Lab, Northhampton, GB).” left out
# [2] = tested on: three UCCs (VM-CUB1, UM-UC-3, 639-V); experiment: High-content analysis-based fluorescent live/dead assay, three UCCs together; type: cell-based, human; settings: HCA live/dead assay, 72 h
# Experimental: Live and dead cells were assayed by high-content analysis (HCA). […] After 72 h of treatment, cells were stained with a mixture of Hoechst 33342 (Sigma Aldrich, St. Louis, MO), calcein AM (Merck Millipore, Germany), and propidium iodide (Santa Cruz Biotechnology, Heidelberg) for cell nuclei, live and dead cells. The staining solution was replaced by PBS after 20 min. Images were acquired using ArrayScan XTI Live High Content Platform (Thermo Fisher Scientific Inc., USA) using excitation filters of 386, 485, and 560 nm for Hoechst 33342, calcein AM, and propidium iodide, respectively. The results were analyzed using HCS Studio Cellomics Scan (Thermo Fisher Scientific Inc., USA).
# [3] = tested on: UCCs VM-CUB1, UM-UC-3, and 639-V; settings: 19i 2 μM, 24 and 48 h
# From the text: Caspase activity after inhibitor treatment was quantified by the Caspase-Glo 3/7 assay and normalized to cell viability measured by CellTiter-Glo® reagent (Promega, Mannheim, Germany) as previously described. Briefly, following exposure to inhibitors, defined aliquots of trypsinized cells were transferred to 96-well plates for viability and caspase-3/7 measurements according to the manufacturer’s protocol.
# [4] = tested on: VM-CUB1 and UM-UC-3 cells; experiment: Nuclear morphology analysis (DAPI, rhodamine phalloidin); type: cell-based, human; settings: 19i 2 μM, 24 or 48 h
# Experimental: As previously described, after fixation with 4% formaldehyde, cells were permeabilized (0.3% Triton X100 in PBS, 10 min, RT), blocked (1% BSA in PBS, 30 min, RT), and subsequently incubated for 1 h at RT with 14 nM Rhodamine Phalloidin in blocking solution. Following counter-staining of nuclei with 1 μg/ml DAPI (4′,6-diamidino-2-phenylindole), cells were mounted with fluorescence mounting medium (DAKO, Glostrup, Denmark). For each treatment option and sample, 500 cells were counted and the amount of mitosis and micronuclei was quantified using a Nikon Eclipse 400 microscope (Nikon, Tokyo, Japan).
# HDAC4 = molecular target: T1, HDAC4 (Homo sapiens, UniProt P56524); settings: older assays, given for HDAC4/5 together; cited from earlier work
# T1 construct: purchased Reaction Biology Corp. (Malvern, PA)
# T1 sequence (P56524 whole entry): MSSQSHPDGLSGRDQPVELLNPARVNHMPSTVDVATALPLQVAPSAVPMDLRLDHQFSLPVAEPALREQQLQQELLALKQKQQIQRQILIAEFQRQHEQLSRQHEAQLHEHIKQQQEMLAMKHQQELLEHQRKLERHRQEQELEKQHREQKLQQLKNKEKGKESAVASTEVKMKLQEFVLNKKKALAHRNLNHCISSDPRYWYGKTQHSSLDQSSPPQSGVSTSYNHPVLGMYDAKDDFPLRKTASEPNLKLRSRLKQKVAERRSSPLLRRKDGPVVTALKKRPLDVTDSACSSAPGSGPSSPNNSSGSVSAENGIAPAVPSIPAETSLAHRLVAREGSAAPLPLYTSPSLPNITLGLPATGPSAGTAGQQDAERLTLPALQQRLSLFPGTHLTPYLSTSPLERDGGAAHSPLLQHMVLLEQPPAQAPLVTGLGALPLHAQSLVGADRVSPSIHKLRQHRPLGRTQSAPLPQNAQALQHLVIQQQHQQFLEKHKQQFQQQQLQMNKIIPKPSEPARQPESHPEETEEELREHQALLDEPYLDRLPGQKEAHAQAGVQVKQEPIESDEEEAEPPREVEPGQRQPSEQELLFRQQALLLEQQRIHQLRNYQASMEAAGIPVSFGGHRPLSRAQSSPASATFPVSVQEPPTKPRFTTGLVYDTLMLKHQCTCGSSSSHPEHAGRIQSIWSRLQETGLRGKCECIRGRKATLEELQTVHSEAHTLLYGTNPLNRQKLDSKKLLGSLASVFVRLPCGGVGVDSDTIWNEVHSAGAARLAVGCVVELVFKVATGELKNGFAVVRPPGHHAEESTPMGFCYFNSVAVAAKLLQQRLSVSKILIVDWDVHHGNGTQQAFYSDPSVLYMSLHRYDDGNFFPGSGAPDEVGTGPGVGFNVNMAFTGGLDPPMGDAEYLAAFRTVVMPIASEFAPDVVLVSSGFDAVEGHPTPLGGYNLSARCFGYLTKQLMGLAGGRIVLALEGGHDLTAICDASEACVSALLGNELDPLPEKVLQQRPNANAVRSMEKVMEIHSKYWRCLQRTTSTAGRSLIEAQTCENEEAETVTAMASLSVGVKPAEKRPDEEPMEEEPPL
# HDAC2 = HDAC2 (Homo sapiens, UniProt Q92769); experiment: In vitro fluorescence-based HDAC inhibition assay (Reaction Biology); settings: read-out: IC50 HDAC2; experiment performed once
# Chain of HDAC2 (Q92769 whole entry): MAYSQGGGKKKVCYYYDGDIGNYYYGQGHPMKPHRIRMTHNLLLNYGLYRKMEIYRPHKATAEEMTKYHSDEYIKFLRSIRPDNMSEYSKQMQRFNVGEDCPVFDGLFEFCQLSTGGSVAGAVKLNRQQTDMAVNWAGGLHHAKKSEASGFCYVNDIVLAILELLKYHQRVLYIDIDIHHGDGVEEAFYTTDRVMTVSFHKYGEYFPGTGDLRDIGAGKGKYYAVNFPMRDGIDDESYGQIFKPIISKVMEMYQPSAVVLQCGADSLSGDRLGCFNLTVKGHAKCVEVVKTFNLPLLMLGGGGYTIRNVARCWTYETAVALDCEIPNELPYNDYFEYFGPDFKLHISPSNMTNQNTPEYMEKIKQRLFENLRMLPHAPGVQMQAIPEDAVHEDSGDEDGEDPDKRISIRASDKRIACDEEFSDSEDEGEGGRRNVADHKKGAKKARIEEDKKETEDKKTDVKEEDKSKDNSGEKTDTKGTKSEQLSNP
# HDAC3 = HDAC3 (Homo sapiens, UniProt O15379); experiment: as above; settings: read-out: IC50 HDAC3; experiment performed once
# Chain of HDAC3 (O15379 whole entry): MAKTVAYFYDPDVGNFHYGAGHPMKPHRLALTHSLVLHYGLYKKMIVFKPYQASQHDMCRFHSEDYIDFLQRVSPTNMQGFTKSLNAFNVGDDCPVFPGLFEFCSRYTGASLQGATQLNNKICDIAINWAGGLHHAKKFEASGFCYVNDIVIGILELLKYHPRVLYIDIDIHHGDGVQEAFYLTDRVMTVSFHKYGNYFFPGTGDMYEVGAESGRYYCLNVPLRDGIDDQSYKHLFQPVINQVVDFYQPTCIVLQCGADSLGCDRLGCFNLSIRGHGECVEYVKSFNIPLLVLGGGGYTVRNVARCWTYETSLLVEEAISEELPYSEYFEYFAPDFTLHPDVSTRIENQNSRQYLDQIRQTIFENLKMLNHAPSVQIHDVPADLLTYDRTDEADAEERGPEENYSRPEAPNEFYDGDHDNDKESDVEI
# Chain of HDAC3 (Q9Y618 395-489 partner limits assumed): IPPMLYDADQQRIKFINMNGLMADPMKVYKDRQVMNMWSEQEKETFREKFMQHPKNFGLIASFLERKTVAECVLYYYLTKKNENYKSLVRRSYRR
# HDAC8 = HDAC8 (Homo sapiens, UniProt Q9BY41); experiment: as above; settings: read-out: IC50 HDAC8; experiment performed once
# Chain of HDAC8 (Q9BY41 whole entry): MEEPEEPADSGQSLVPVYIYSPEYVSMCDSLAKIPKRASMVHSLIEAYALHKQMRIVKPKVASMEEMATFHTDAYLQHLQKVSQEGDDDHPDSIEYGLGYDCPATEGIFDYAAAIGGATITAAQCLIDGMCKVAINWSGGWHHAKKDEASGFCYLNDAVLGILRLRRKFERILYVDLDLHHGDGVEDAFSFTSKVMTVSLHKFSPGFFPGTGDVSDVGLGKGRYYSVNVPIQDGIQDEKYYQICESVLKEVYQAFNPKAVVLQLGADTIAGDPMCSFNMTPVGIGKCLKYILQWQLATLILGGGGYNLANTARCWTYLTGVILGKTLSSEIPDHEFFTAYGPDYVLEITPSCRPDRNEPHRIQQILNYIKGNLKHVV
# HDAC9 = HDAC9 (Homo sapiens, UniProt Q9UKV0); experiment: as above; settings: read-out: IC50 HDAC9; experiment performed once
# Chain of HDAC9 (Q9UKV0 whole entry): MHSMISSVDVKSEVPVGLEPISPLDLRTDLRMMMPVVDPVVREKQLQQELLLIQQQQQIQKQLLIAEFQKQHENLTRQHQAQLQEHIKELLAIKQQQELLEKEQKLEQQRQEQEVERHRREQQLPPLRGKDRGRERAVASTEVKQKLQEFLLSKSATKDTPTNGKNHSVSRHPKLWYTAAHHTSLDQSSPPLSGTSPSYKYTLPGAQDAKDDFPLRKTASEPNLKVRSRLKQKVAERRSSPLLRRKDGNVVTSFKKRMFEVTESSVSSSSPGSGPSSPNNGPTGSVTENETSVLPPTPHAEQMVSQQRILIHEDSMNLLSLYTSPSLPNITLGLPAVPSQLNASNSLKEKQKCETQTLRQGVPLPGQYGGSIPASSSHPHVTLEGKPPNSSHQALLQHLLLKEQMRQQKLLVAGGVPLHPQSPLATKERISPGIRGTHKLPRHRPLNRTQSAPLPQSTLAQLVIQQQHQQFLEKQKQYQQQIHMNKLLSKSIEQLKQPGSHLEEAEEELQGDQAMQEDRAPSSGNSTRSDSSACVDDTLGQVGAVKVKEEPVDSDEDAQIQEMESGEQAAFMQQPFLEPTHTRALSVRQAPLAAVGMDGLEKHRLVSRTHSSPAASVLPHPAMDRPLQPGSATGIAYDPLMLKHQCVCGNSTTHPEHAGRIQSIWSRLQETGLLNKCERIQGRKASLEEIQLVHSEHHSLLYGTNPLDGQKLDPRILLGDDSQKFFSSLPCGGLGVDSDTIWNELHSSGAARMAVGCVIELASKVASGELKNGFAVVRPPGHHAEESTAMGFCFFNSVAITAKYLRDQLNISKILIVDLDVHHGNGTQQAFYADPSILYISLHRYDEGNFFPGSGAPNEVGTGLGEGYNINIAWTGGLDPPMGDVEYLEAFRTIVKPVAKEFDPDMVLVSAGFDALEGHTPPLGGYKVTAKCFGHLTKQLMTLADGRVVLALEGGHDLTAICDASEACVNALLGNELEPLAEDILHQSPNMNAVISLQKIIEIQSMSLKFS
# HDAC10 = HDAC10 (Homo sapiens, UniProt Q969S8); experiment: as above; settings: read-out: IC50 HDAC10; experiment performed once
# Chain of HDAC10 (Q969S8 whole entry): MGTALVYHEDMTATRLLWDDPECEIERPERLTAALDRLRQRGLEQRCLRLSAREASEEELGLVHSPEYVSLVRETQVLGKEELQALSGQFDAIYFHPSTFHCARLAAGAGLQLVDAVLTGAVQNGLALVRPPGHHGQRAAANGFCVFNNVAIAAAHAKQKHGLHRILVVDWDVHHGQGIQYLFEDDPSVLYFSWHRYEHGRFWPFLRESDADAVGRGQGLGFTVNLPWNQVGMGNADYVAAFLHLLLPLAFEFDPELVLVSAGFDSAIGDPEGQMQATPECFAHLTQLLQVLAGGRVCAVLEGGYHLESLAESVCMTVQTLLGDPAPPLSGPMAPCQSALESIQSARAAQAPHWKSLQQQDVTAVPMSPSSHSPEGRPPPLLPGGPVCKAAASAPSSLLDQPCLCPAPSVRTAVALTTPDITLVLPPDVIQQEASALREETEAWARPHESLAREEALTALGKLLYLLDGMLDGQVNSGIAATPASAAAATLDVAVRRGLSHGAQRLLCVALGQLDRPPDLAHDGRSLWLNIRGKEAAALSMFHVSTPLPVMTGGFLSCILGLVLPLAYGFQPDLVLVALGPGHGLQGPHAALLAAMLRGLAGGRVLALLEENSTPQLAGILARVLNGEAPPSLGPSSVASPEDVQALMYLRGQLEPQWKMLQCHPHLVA
# HDAC11 = HDAC11 (Homo sapiens, UniProt Q96DB2); experiment: as above; settings: read-out: IC50 HDAC11; experiment performed once
# Chain of HDAC11 (Q96DB2 whole entry): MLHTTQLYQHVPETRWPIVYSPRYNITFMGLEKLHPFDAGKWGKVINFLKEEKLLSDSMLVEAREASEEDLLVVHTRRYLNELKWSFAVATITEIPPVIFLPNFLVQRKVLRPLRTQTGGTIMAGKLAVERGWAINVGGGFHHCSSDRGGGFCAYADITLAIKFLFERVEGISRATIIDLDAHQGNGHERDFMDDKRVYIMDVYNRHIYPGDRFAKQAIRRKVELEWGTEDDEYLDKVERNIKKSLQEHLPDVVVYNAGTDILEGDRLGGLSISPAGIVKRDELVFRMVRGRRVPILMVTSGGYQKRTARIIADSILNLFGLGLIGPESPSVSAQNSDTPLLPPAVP
smiles,measurement,setting,value
Cc1cc(C)cc(C(=O)NOCCCCCC(=O)NO)c1 [19i],CC50,639-V,1030 nM
same,CC50,HBLAK,> 5000 nM
same,CC50,HEK-293,610 nM
same,CC50,UM-UC-3,820 nM
same,CC50,VM-CUB1,970 nM
same,CC50,[1],~1000 nM
same,CC50,[2],< 1000 nM
same,caspase 3/7 activity,[3],"significant, albeit moderately increased"
same,number of mitoses,[4],decreased sharply
same,percentage of cells with micronuclei,[4],increased
same,in vitro IC50 HDAC4,HDAC4,nanomolar range
same,IC50,HDAC2,402 nM
same,IC50,HDAC3,236 nM
same,IC50,HDAC8,2840 nM
same,IC50,HDAC9,198000 nM
same,IC50,HDAC10,491 nM
same,IC50,HDAC11,109000 nM
